The values that follow come from patent US20250057813A1, “APOPTOSIS RELATED PROTEIN IN THE TGF-BETA SIGNALING PATHWAY (ARTS) MIMETIC COMPOUNDS, COMPOSITIONS, METHODS AND USES THEREOF IN INDUCTION OF APOPTOSIS” (Carmel-Haifa University Economic Corporation Ltd., priority 2022, published 2025).

A word on the Kd: it is the constant that tells how readily two partners part at equilibrium.

The target of one experiment is T1, XIAP-BIR3 (Homo sapiens, UniProt P98170).
T1 construct: fused on or other part: NT650 fluorescent dye attached covalently by maleimide coupling; the protein is otherwise untagged
The experiment can be described thus: MST binding of B3 to fluorescently labelled recombinant XIAP. Conditions: spread printed +/−11 μM, read-out: Kd, direct binding to XIAP-BIR3. The procedure:
Microscale thermophoresis (MST) binding assays were performed by CreLux, a WuXi AppTech company in Germany, using recombinant ARTS, XIAP, Bcl-2 and cIAP1 proteins. Specifically, for performing experiments with untagged XIAP, a fluorescent label (NT650) was covalently attached to the protein (Maleimide coupling). The labelling was performed in a buffer containing 50 mM HEPES pH 7.0, 150 mM NaCl and 0.005% Tween-20.
Microscale thermophoresis (MST) binding assays were performed by CreLux, a WuXi AppTech company in Germany, using recombinant ARTS and XIAP proteins. Specifically, for performing experiments with untagged XIAP, a fluorescent label (NT650) was covalently attached to the protein (Maleimide coupling). The labeling was performed in a buffer containing 50 mM HEPES pH 7.0, 150 mM NaCl, and 0.005% Tween-20. A detailed description is provided in the Supplementary Materials and methods.

Experiment [1] concerns the target T2, binding between ARTS and p53 (Mus musculus, UniProt P02340).
T2 construct: expressed in transfected cells; host or cells: Sept4/ARTS KO MEFs (per the earlier reading)
The experiment is described as follows: Co-immuno-precipitation between ARTS and p53 in Sept4/ARTS KO MEFs. The class given is cell-based. Conditions: B3 for 24 hrs. The procedure:
Cells were harvested and lysed with radioimmunoprecipitation assay (RIPA) buffer (Tris-HCl pH 7.5 50 mM, NaCl 150 mM, NP-40 (Igepal) 0.3%) containing protease inhibitor cocktail (Complete, Roche) and 100 μg/ml PMSF. Antibodies were used at 5 μg per […] protein and incubated overnight, rotating at 4° C. The next day, agarose beads conjugated to protein A/G (Santa Cruz Biotechnology) were added for 4 h with rotation at 4° C. Samples were centrifuged at 4° C. for 5 min and washed five times with RIPA buffer. Proteins were eluted from beads by 10 min of boiling in sample buffer and separated on 12% SDS-PAGE gel, followed by Western blot analysis.

Experiment [2] deals with SKMEL-5, A-375, UACC257, Hela wt, Mefs. The experiment can be described thus: Western blot, B3 apoptotic effect on different cell lines. Conditions: 20 μM, 24 h. The class given is cell-based. The procedure:
The cells were lysed in WCE (whole-cell extract) buffer [25 mM Hepes, pH 7.7, 0.3M NaCl, 1.5 mM MgCl2, 0.2 mM EDTA, 0.1% Triton X-100, 100[μg/ml PMSF and protease inhibitor cocktail (Roche, 1:100 dilution)]. 100 μg of total cell protein, measured with the Bio-Rad Protein Assay kit, were separated by SDS-PAGE (12%) followed by transfer for 2 h on to a nitrocellulose membrane. The membrane was blocked with 5% (w/v) non-fat dried skimmed milk powder in PBS supplemented with 0.05% Tween20 (PBS-T) for 1 hour at room temperature (R.T). Membrane was then probed with primary antibody at 4° C. overnight. Next, the membrane was incubated with the appropriate HRP-conjugated secondary antibody, for 1 hour at R.T. and washed 15 min ×3 with PBS-T. WesternBright ECL (Advansta) was added to the membrane for 2 min and analyzed using ImageQuant LAS-4000 analyzer (GE Healthcare Life Sciences) & “ImageQuant LAS-4000” software (GE Healthcare Life Sciences). Densitometry analysis was performed using ImageQuant total lab 7 (GE Healthcare Life Sciences), image analysis software.

For a further experiment, the system named is MEF cells. The experiment can be described thus: Western blot analysis of MEF cells (WT and XIAP KO). The class given is cell-based, mouse. As to conditions: 20 μM B3 for 2, 4, 6, 16 hours. The method, then: Cells were lysed in whole-cell extract buffer [25 mM HEPES, pH 7.7, […], 1.5 mM MgCl2, 0.2 mM EDTA, 0.1% Triton X-100, 100 μg/ml phenylmethylsulfonyl fluoride (PMSF) and protease inhibitor cocktail (Roche, 1:100 dilution)] and placed on ice for 30 min (vortexing once after 15 min). After 30 minutes, the samples were centrifuged at 13,000×g for 10 minutes at 4° C. The supernatants containing total protein were measured for protein concentration using Bio-Rad Protein Assay Dye Reagent Concentrate Kit. 40 to […] was separated by sodium dodecyl sulfate-polyacrylamide gel electrophoresis (SDS-PAGE) (12% or 7.5%), followed by transfer to a nitrocellulose membrane. The membranes were blocked with 5% (w/v) non-fat dried skimmed milk powder in PBS supplemented with 0.05% Tween-20 (PBS-T) for 1 h at RT. Next, primary antibodies were added at 4° C. overnight or for 2 h at room temperature. Membranes were then incubated with secondary antibody for 1 h at RT and washed three times for 15 min each with PBS-T. Western Bright ECL (Advansta) was added to the membrane for 30-60 s and analyzed using Image Quant LAS-4000 (GE Healthcare Life Sciences) and Image Quant LAS-4000 software (GE Healthcare Life Sciences).
(In general: A western blot detects proteins with antibodies after separation by electrophoresis.)

The subject of experiment [3] is p53 Ubiquitylation in HCT 116 XIAP KO cells. The experiment is described as follows: In vivo ubiquitylation assay of p53. The class given is cell-based. As to conditions: 20 μM B3, XIAP KO cells. The procedure:
(§1) All cells were transiently transfected with a Ub-HA (ubiquitin-tagged with HA) construct and treated with a proteasome inhibitor (Bortezomib or MG-132, at 20 μM for 6 h). after 1 h of proteasome inhibitor incubation, B3 (20 μM) or DMSO was added to the medium for an additional 5 h. After 6 h of Bortezomib/MG-132 along with 5 h of B3 treatments, the cells were harvested and lysed using RIPA buffer (Tris-HCl pH 7.5 50 mM, NaCl 150 mM, NP-40 (Igepal) 0.3%) containing protease inhibitor cocktail (Complete, Roche), 100 µg/ml PMSF, 5 mM N-ethylmaleimide, and 5 mM iodoacetamide to preserve ubiquitin chains. Following 15 min of centrifugation (10,000×g, 4° C.), the supernatant was transferred into a clean Eppendorf tube. A ubiquitination assay using immunoprecipitation with anti-p53 antibody (CS2524) (endogenous p53 was pulled down) was performed as described above with 1:500 antibody per 1000 μg protein. Poly-ubiquitylated forms of p53 were detected using an anti-p53 antibody (DO-1, sc-126).

The subject of experiment [4] is p53 Ubiquitylation in HCT 116 WT. The experiment can be described thus: In vivo ubiquitylation assay of p53. The class given is cell-based. Conditions: 20 μM B3, 5 h, with proteasome inhibitor. The method, then: as §1

T2 sequence (P02340 whole entry): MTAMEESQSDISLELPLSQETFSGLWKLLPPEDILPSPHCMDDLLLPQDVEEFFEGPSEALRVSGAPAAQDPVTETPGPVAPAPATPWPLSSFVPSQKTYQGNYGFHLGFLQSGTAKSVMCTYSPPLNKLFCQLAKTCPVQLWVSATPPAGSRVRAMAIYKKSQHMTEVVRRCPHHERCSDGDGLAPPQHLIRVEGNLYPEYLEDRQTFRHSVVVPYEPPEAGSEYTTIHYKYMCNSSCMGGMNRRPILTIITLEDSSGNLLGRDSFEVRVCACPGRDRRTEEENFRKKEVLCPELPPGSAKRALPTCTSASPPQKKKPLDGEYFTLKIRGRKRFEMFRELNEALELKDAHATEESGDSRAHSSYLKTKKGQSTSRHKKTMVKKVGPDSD
T1 sequence (P98170 241-356 limits assumed): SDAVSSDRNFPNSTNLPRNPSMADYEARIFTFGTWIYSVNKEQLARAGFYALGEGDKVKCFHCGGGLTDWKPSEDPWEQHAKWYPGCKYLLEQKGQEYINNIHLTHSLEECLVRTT

As for `Cn1ccnc1C(=O)c1ccc(NC(=O)C(=O)N[C@H](CO)Cc2ccccc2)cc1` [B3, (S)-N1-(1-hydroxy-3-phenylpropan-2-yl)-N2-(4-(1-methyl-1H-imidazole-2-carbonyl)phenyl)oxalamide], the equilibrium dissociation constant (Kd) on XIAP-BIR3 is 36 µM. In addition, the “binding between ARTS and p53” value in experiment [1] is “reduces”. Also, the “cleavage of apoptotic markers Caspase3 and PARP” value in experiment [2] is on record as “induced cleavage”. For the same molecule, in the experiment on MEF cells, the MDM2 levels result is reported as “reduction”, the XIAP levels result is listed as “reduction”, the “cPARP or caspase3” value is recorded as “elevation” and the p53 levels entry is listed as “elevation”. For the same molecule, the “p53 Ubiquitylation levels” value in experiment [3] is “no effect”. Further, in experiment [4], the “Ubiquitylation of p53” value is recorded as “inhibit”.
